Test system: primary human airway epithelial cells
Experiment: IL-13 stimulation of airway epithelial cells in vitro, real time RT-PCR
Format: cell-based
Conditions: IL-13 10 ng/mL, up to 4 days
Procedure: To confirm that airway epithelial cells are a source of serpinB2 and periostin and that these genes may be induced by cytokines relevant to asthma, we stimulated primary human airway epithelial cells in vitro with IL-13 (0.1 to 10 ng) for up to 4 days (methods in supplementary appendix).
Human primary bronchial airway epithelial cells were purchased (Clonetics—Cambrex Bio Science, Walkersville Md.) and grown as described by Gray et al.^7 Cells were purchased at passage 1 and expanded in T25 flasks until they reached 80% confluency at which time they were passaged onto 6.5 mm Transwell permeable supports at a density of 132,000 cells/filter. The cells were grown submerged in Gray's medium until approximately day 7 to 9 at which point an air-liquid interface was established. Cells became fully differentiated (ciliated and mucous producing) as determined by transepithelial voltage and resistance after 2-3 weeks on the filters. Cells were exposed to the recombinant human IL-13 (R&D Systems, Minneapolis Minn.) for up to four days at concentrations ranging from 0.1 ng/ml to 10 ng/ml. Filters were cut from the support and submerged in RLT lysis buffer (Qiagen Inc, Valencia Calif.) and stored at −80° C. before analysis of gene expression by real time RT-PCR.

With “IL-13: recombinant human IL-13 (R&D Systems) used to stimulate airway epithelial cells” the “Epithelial gene expression of periostin” value was “large increases” and the “Epithelial gene expression of serpinB2” value was “large increases”.
